Values of other authors in US11154563B2, “Immunoproteasome inhibitors” (Principia Biopharma Inc., priority 2017, dated 2021).

What was measured:
[1] = test system: multiple myeloma cell lines and primary patient tumor cells; details: including cells resistant to conventional and novel prior therapies; cited from earlier work
Th1/17 differentiation = details: human and mouse; cited from earlier work
[2] = test system: murine collagen-induced arthritis; details: including reduction of inflammation and bone erosion; cited from earlier work
MRL/lpr lupus model = details: cited from earlier work
[3] = test system: murine DSS-induced colitis model; details: cited from earlier work
[4] = test system: Hashimoto's thyroiditis model; details: autoantibody-driven model; cited from earlier work
prostate PC-3 cell line = details: in vitro; cited from earlier work
tumor growth = details: cited from earlier work

## CC1=C(C(=O)N[C@H](C)C(=O)N[C@@H](Cc2c[nH]c3ccccc23)C(=O)N[C@@H](Cc2ccccc2)C(=O)[C@@]2(C)CO2)Cc2ccccc21 [PR-924]
[1]
  growth of multiple myeloma cells: inhibit growth

## COc1ccc(C[C@H](NC(=O)[C@H](C)NC(=O)CN2CCOCC2)C(=O)N[C@@H](Cc2ccccc2)C(=O)[C@@]2(C)CO2)cc1 [PR-957]
Th1/17 differentiation
  block of Th1/17 differentiation: potently block
[2]
  disease activity in collagen-induced arthritis: significantly inhibit disease activity
MRL/lpr lupus model
  disease progression: prevented disease progression
  plasma cell numbers and anti-dsDNA IgG levels: reduced plasma cell numbers and anti-dsDNA IgG levels
[3]
  inflammation and tissue destruction: reduced inflammation and tissue destruction
[4]
  efficacy in Hashimoto's thyroiditis model: efficacious

## CCCCCCC(=O)N[C@@H](C)C(=O)N[C@@H](CC(C)C)C(=O)[C@@]1(CO[Si](C)(C)C(C)(C)C)CO1 [UK-101]
Prostate PC-3 cell line
  apoptosis of PC-3 cells: induced apoptosis
Tumor growth
  tumor growth in vivo: significantly suppressed tumor growth
